Results as given in patent US20240116985A1, “STAPLED PEPTIDES AND METHODS THEREOF” (priority 2020, published 2024).

What was measured:
[1] = target: T1, full-length beta-Catenin (Uniprot ID P35222) (Homo sapiens, UniProt P35222); assay: Fluorescence polarization IC50 (beta-catenin / 5FAM-TCF4 10-53 competition); type: binding; conditions: fluorescence polarization; read-out: beta-Catenin FP IC50
T1 construct: 10 nM full-length beta-Catenin (Uniprot ID P35222)
T1 sequence (P35222 1-781): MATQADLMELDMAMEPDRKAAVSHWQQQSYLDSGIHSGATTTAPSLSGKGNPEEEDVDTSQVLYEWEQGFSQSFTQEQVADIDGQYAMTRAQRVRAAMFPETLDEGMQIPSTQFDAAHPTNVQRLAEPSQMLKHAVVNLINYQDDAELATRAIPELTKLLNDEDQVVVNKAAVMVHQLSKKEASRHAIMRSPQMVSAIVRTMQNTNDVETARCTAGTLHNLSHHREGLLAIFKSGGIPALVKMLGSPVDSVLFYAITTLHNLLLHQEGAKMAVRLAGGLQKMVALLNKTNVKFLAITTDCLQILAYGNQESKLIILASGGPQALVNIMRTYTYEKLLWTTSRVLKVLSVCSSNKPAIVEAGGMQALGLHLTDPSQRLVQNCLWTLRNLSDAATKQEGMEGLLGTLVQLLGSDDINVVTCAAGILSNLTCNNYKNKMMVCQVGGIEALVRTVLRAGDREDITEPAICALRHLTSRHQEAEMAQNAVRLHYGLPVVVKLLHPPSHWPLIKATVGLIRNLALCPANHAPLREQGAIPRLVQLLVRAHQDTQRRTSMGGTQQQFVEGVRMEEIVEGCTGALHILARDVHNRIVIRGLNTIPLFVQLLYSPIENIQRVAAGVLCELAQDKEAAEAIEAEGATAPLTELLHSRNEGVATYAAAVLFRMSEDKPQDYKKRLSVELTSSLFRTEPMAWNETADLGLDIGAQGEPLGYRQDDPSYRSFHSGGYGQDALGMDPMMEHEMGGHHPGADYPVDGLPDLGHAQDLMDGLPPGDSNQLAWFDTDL

[2] = target: T2, beta-catenin/TCF4 engagement (Homo sapiens, UniProt P35222); assay: Nano-BRET target engagement assay (B-cat-Halo & TCF4-Luc in HEK293 cells); type: cell-based; conditions: absolute IC50; read-out: NanoBRET Abs IC50
T2 construct: expressed in transfected cells; host or cells: HEK293
T2 sequence (P35222 1-781): T1 sequence (P35222 1-781)

Structure (SMILES)	IC50 [1] [nM]	IC50 [2] [nM]
CC(=O)N1CCC[C@]12CC=CCCCC1(CCCC=CCCCOC(=O)N3CC[C@@](C(=O)N[C@@H](Cc4ccsc4)C(=O)N[C@@H](Cc4csc5ccccc45)C(=O)N[C@@H](CCC(N)=O)C(N)=O)(C3)NC(=O)[C@H](CC(C)C)NC(=O)[C@H](Cc3ccccc3)NC(=O)[C@H](CCCCNC(=O)COCCOCCNC(=O)CC[C@@H](C)[C@H]3CC[C@H]4[C@@H]5CC[C@@H]6C[C@H](O)CC[C@]6(C)[C@H]5CC[C@]34C)NC(=O)[C@H](C)NC(=O)[C@H](CC(=O)O)NC(=O)[C@H](CC(=O)O)NC1=O)NC(=O)[C@H](CC(C)(C)C)NC(=O)[C@H](CC(=O)O)NC2=O (stereo partly drawn) [I-1474, Ac-PL3-Asp-Npg-B5-Asp-Asp-Ala-[lithocholate-PEG2]-Lys-Phe-Leu-PyrS2-3Thi-BztA-Gln-NH2]	41	> 20000
CC(=O)N1CCC[C@]12CC=CCCCC1(CCCC=CCCCOC(=O)N3CC[C@@](C(=O)N[C@@H](Cc4ccsc4)C(=O)N[C@@H](Cc4csc5ccccc45)C(=O)N[C@@H](CCC(N)=O)C(=O)N[C@@H](CCCCNC(=O)COCCOCCNC(=O)CC[C@@H](C)[C@H]4CC[C@H]5[C@@H]6CC[C@@H]7C[C@H](O)CC[C@]7(C)[C@H]6CC[C@]45C)C(N)=O)(C3)NC(=O)[C@H](CC(C)C)NC(=O)[C@H](Cc3ccccc3)NC(=O)[C@H](C)NC(=O)[C@H](C)NC(=O)[C@H](CC(=O)O)NC(=O)[C@H](CC(=O)O)NC1=O)NC(=O)[C@H](CC(C)(C)C)NC(=O)[C@H](CC(=O)O)NC2=O (stereo partly drawn) [I-1478, Ac-PL3-Asp-Npg-B5-Asp-Asp-Ala-Ala-Phe-Leu-PyrS2-3Thi-BztA-Gln-[lithocholate-PEG2]-Lys-NH2]	75	17100
CC(=O)N1CCC[C@]12CC=CCCCC1(CCCC=CCCCOC(=O)N3CC[C@@](C(=O)N[C@@H](Cc4ccsc4)C(=O)N[C@@H](Cc4csc5ccccc45)C(=O)N[C@@H](CCC(N)=O)C(N)=O)(C3)NC(=O)[C@H](CC(C)C)NC(=O)[C@H](Cc3ccccc3)NC(=O)[C@H](C)NC(=O)[C@H](CC(=O)N3CCOCC3)NC(=O)[C@H](CC(=O)O)NC(=O)[C@H](CC(=O)O)NC1=O)NC(=O)[C@H](CC(C)(C)C)NC(=O)[C@H](CC(=O)O)NC2=O (stereo partly drawn) [I-1483, Ac-PL3-Asp-Npg-B5-Asp-Asp-MorphAsn-Ala-Phe-Leu-PyrS2-3Thi-BztA-Gln-NH2]	22	> 20000
CC(=O)N1CCC[C@]12CC=CCCCC1(CCCC=CCCCOC(=O)N3CC[C@@](C(=O)N[C@@H](Cc4ccsc4)C(=O)N[C@@H](Cc4csc5ccccc45)C(=O)N[C@@H](CCC(N)=O)C(N)=O)(C3)NC(=O)[C@H](CC(C)C)NC(=O)[C@H](Cc3ccccc3)NC(=O)[C@H](C)NC(=O)[C@H](CC(=O)N3CCN(C)CC3)NC(=O)[C@H](CC(=O)O)NC(=O)[C@H](CC(=O)O)NC1=O)NC(=O)[C@H](CC(C)(C)C)NC(=O)[C@H](CC(=O)O)NC2=O (stereo partly drawn) [I-1484, Ac-PL3-Asp-Npg-B5-Asp-Asp-MePpzAsn-Ala-Phe-Leu-PyrS2-3Thi-BztA-Gln-NH2]	30	> 20000
CC(=O)N1CCC[C@]12CC=CCCCC1(CCCC=CCCCOC(=O)N3CC[C@@](C(=O)N[C@@H](Cc4ccsc4)C(=O)N[C@@H](Cc4csc5ccccc45)C(=O)N[C@@H](CCC(N)=O)C(N)=O)(C3)NC(=O)[C@H](CCCN3CCOCC3)NC(=O)[C@H](Cc3ccccc3)NC(=O)[C@H](C)NC(=O)[C@H](C)NC(=O)[C@H](CC(=O)O)NC(=O)[C@H](CC(=O)O)NC1=O)NC(=O)[C@H](CC(C)(C)C)NC(=O)[C@H](CC(=O)O)NC2=O (stereo partly drawn) [I-1485, Ac-PL3-Asp-Npg-B5-Asp-Asp-Ala-Ala-Phe-MorphNva-PyrS2-3Thi-BztA-Gln-NH2]	7	25800
CC(=O)N1CCC[C@]12CC=CCCCC1(CCCC=CCCCOC(=O)N3CC[C@@](C(=O)N[C@@H](Cc4ccsc4)C(=O)N[C@@H](Cc4csc5ccccc45)C(=O)N[C@@H](CCC(N)=O)C(N)=O)(C3)NC(=O)[C@H](CCCN3CCC(F)(F)CC3)NC(=O)[C@H](Cc3ccccc3)NC(=O)[C@H](C)NC(=O)[C@H](C)NC(=O)[C@H](CC(=O)O)NC(=O)[C@H](CC(=O)O)NC1=O)NC(=O)[C@H](CC(C)(C)C)NC(=O)[C@H](CC(=O)O)NC2=O (stereo partly drawn) [I-1486, Ac-PL3-Asp-Npg-B5-Asp-Asp-Ala-Ala-Phe-F2PipNva-PyrS2-3Thi-BztA-Gln-NH2]	5	17900
CC(=O)N1CCC[C@]12CC=CCCCC1(CCCC=CCCCOC(=O)N3CC[C@@](C(=O)N[C@@H](Cc4ccsc4)C(=O)N[C@@H](Cc4csc5ccccc45)C(=O)N[C@@H](CCC(N)=O)C(N)=O)(C3)NC(=O)[C@H](CC(=O)N3CCOCC3)NC(=O)[C@H](Cc3ccccc3)NC(=O)[C@H](C)NC(=O)[C@H](C)NC(=O)[C@H](CC(=O)O)NC(=O)[C@H](CC(=O)O)NC1=O)NC(=O)[C@H](CC(C)(C)C)NC(=O)[C@H](CC(=O)O)NC2=O (stereo partly drawn) [I-1487, Ac-PL3-Asp-Npg-B5-Asp-Asp-Ala-Ala-Phe-MorphAsn-PyrS2-3Thi-BztA-Gln-NH2]	7	21500
CC(=O)N1CCC[C@]12CC=CCCCC1(CCCC=CCCCOC(=O)N3CC[C@@](C(=O)N[C@@H](Cc4ccsc4)C(=O)N[C@@H](Cc4csc5ccccc45)C(=O)N[C@@H](CCC(N)=O)C(N)=O)(C3)NC(=O)[C@H](CC(=O)N3CCN(C)CC3)NC(=O)[C@H](Cc3ccccc3)NC(=O)[C@H](C)NC(=O)[C@H](C)NC(=O)[C@H](CC(=O)O)NC(=O)[C@H](CC(=O)O)NC1=O)NC(=O)[C@H](CC(C)(C)C)NC(=O)[C@H](CC(=O)O)NC2=O (stereo partly drawn) [I-1488, Ac-PL3-Asp-Npg-B5-Asp-Asp-Ala-Ala-Phe-MePpzAsn-PyrS2-3Thi-BztA-Gln-NH2]	6	30300

The remaining lines, values ahead:

IC50 [1] [nM]	IC50 [2] [nM]	Structure (SMILES)
12	> 20000	CC(=O)N1CCC[C@]12CC=CCCCC1(CCCC=CCCCOC(=O)N3CC[C@@](C(=O)N[C@@H](Cc4ccsc4)C(=O)N[C@@H](Cc4csc5ccccc45)C(=O)N[C@@H](CCC(N)=O)C(N)=O)(C3)NC(=O)[C@H](CC(C)C)NC(=O)[C@H](Cc3ccccc3)NC(=O)[C@H](C)NC(=O)[C@H](C)NC(=O)[C@H](CC(=O)O)NC(=O)[C@H](CC(=O)O)NC1=O)NC(=O)[C@H](CCCCNC(=O)COCCOCCNC(=O)C13CC4(C)CC(C)(CC(C)(C4)C1)C3)NC(=O)[C@H](CC(=O)O)NC2=O (stereo partly drawn) [I-1472, Ac-PL3-Asp-[Me3AdamantC-PEG2]-Lys-B5-Asp-Asp-Ala-Ala-Phe-Leu-PyrS2-3Thi-BztA-Gln-NH2]
16	> 20000	CC(=O)N1CCC[C@]12CC=CCCCC1(CCCC=CCCCOC(=O)N3CC[C@@](C(=O)N[C@@H](Cc4ccsc4)C(=O)N[C@@H](Cc4csc5ccccc45)C(=O)N[C@@H](CCC(N)=O)C(N)=O)(C3)NC(=O)[C@H](CC(C)C)NC(=O)[C@H](Cc3ccccc3)NC(=O)[C@H](CCCCNC(=O)COCCOCCNC(=O)C34CC5(C)CC(C)(CC(C)(C5)C3)C4)NC(=O)[C@H](C)NC(=O)[C@H](CC(=O)O)NC(=O)[C@H](CC(=O)O)NC1=O)NC(=O)[C@H](CC(C)(C)C)NC(=O)[C@H](CC(=O)O)NC2=O (stereo partly drawn) [I-1476, Ac-PL3-Asp-Npg-B5-Asp-Asp-Ala-[Me3AdamantC-PEG2]-Lys-Phe-Leu-PyrS2-3Thi-BztA-Gln-NH2]
37	9300	CC(=O)N1CCC[C@]12CC=CCCCC1(CCCC=CCCCOC(=O)N3CC[C@@](C(=O)N[C@@H](Cc4ccsc4)C(=O)N[C@@H](Cc4csc5ccccc45)C(=O)N[C@@H](CCC(N)=O)C(=O)N[C@@H](CCCCNC(=O)COCCOCCNC(=O)C45CC6(C)CC(C)(CC(C)(C6)C4)C5)C(N)=O)(C3)NC(=O)[C@H](CC(C)C)NC(=O)[C@H](Cc3ccccc3)NC(=O)[C@H](C)NC(=O)[C@H](C)NC(=O)[C@H](CC(=O)O)NC(=O)[C@H](CC(=O)O)NC1=O)NC(=O)[C@H](CC(C)(C)C)NC(=O)[C@H](CC(=O)O)NC2=O (stereo partly drawn) [I-1480, Ac-PL3-Asp-Npg-B5-Asp-Asp-Ala-Ala-Phe-Leu-PyrS2-3Thi-BztA-Gln-Me3AdamantC-PEG2]-Lys-NH2]
7	18000	CC(=O)N1CCC[C@]12CC=CCCCC1(CCCC=CCCCOC(=O)N3CC[C@@](C(=O)N[C@@H](Cc4ccsc4)C(=O)N[C@@H](Cc4csc5ccccc45)C(=O)N[C@@H](CCC(N)=O)C(N)=O)(C3)NC(=O)[C@H](CC(C)C)NC(=O)[C@H](Cc3ccccc3)NC(=O)[C@H](C)NC(=O)[C@H](CCCN3CCC(F)(F)CC3)NC(=O)[C@H](CC(=O)O)NC(=O)[C@H](CC(=O)O)NC1=O)NC(=O)[C@H](CC(C)(C)C)NC(=O)[C@H](CC(=O)O)NC2=O (stereo partly drawn) [I-1482, Ac-PL3-Asp-Npg-B5-Asp-Asp-F2PipNva-Ala-Phe-Leu-PyrS2-3Thi-BztA-Gln-NH2]
5	7300	CC(=O)N1CCC[C@]12CC=CCCCC1(CCCC=CCCCOC(=O)N3CC[C@@](C(=O)N[C@@H](Cc4ccsc4)C(=O)N[C@@H](Cc4csc5ccccc45)C(=O)N[C@@H](CC(N)=O)C(N)=O)(C3)NC(=O)[C@H](CC(C)C)NC(=O)[C@H](Cc3ccccc3)NC(=O)[C@H](C)NC(=O)[C@H](C)NC(=O)[C@H](CC(=O)O)NC(=O)[C@H](CC(=O)O)NC1=O)NC(=O)[C@H](CC(C)(C)C)NC(=O)[C@H](CC(=O)O)NC2=O (stereo partly drawn) [I-1492, Ac-PL3-Asp-Npg-B5-Asp-Asp-Ala-Ala-Phe-Leu-PyrS2-3Thi-BztA-Asn-NH2]
